In PubChem BioAssay AID248 (DTP/NCI, 2004) one finds T/C data, which are given here for 18 compounds.

This experiment has as its system L1210 leukemia ip in BDF1 mice, survival T/C. The experiment in a line: NCI In Vivo Anticancer Drug Screen. Data for tumor model L1210 Leukemia (intraperitoneal) in B6D2F1 (BDF1) mice. As to conditions: endpoint: mean survival time, higher = longer survival. Summed up:
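Each compound was tested against a transplantable tumor grown in mice. The endpoint was survival, with treated animals benchmarked against vehicle controls as a simple ratio.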

Where [1] appears, read: dose: 100.0 mg/kg/injection, schedule: Q04DX002 (ip), vehicle: Klucel (hydroxypropylcellulose) (HPC).
[2] abbreviates: dose: 200.0 mg/kg/injection, schedule: Q04DX002 (ip), vehicle: Klucel (hydroxypropylcellulose) (HPC).
Where [3] appears, read: dose: 400.0 mg/kg/injection, schedule: Q04DX002 (ip), vehicle: Klucel (hydroxypropylcellulose) (HPC).
Where [4] appears, read: dose: 25.0 mg/kg/injection, schedule: Q01DX009 (ip), vehicle: saline with Tween-80.
The mark [5] stands for this setting: dose: 50.0 mg/kg/injection, schedule: Q01DX009 (ip), vehicle: saline with Tween-80.
The mark [6] stands for this setting: dose: 100.0 mg/kg/injection, schedule: Q01DX009 (ip), vehicle: saline with Tween-80.
Where [7] appears, read: dose: 100.0 mg/kg/injection, schedule: Q04DX003 (ip), vehicle: saline with Tween-80.
Setting [8] is: dose: 200.0 mg/kg/injection, schedule: Q04DX003 (ip), vehicle: saline with Tween-80.
Where [9] appears, read: dose: 100.0 mg/kg/injection, schedule: Q01DX009 (ip), vehicle: saline.
[10] abbreviates: dose: 100.0 mg/kg/injection, schedule: Q04DX003 (ip), vehicle: saline.
The mark [11] stands for this setting: dose: 200.0 mg/kg/injection, schedule: Q04DX003 (ip), vehicle: saline.
Setting [12] is: dose: 400.0 mg/kg/injection, schedule: Q04DX003 (ip), vehicle: saline.
Setting [13] is: dose: 100.0 mg/kg/injection, schedule: Q01DX001 (ip), vehicle: saline.
The mark [14] stands for this setting: dose: 200.0 mg/kg/injection, schedule: Q01DX001 (ip), vehicle: saline.
[15] abbreviates: dose: 400.0 mg/kg/injection, schedule: Q01DX001 (ip), vehicle: saline.
Where [16] appears, read: dose: 200.0 mg/kg/injection, schedule: Q01DX009 (ip), vehicle: saline with Tween-80.
The mark [17] stands for this setting: dose: 400.0 mg/kg/injection, schedule: Q01DX009 (ip), vehicle: saline with Tween-80.
The mark [18] stands for this setting: dose: 200.0 mg/kg/injection, schedule: Q01DX009 (ip), vehicle: saline.
The mark [19] stands for this setting: dose: 400.0 mg/kg/injection, schedule: Q01DX009 (ip), vehicle: saline.

Where “and” joins values, the source holds several entries; their conditions need not be identical. Identical values can stand only once. Toxic doses and inconclusive results are not listed.

As for `Cc1cc(O)c(C(C)C)cc1C1=NCC(C)S1` (stereo unspecified), the T/C was 93 % of control (dose: 100.0 mg/kg/injection, schedule: Q01DX005 (ip), vehicle: Klucel (hydroxypropylcellulose) (HPC)); 102 % of control (dose: 100.0 mg/kg/injection, schedule: Q01DX009 (ip), vehicle: Klucel (hydroxypropylcellulose) (HPC)); 100 % of control under setting [1]; 90 % of control (dose: 200.0 mg/kg/injection, schedule: Q01DX005 (ip), vehicle: Klucel (hydroxypropylcellulose) (HPC)); 102 % of control (dose: 200.0 mg/kg/injection, schedule: Q01DX009 (ip), vehicle: Klucel (hydroxypropylcellulose) (HPC)); 104 % of control under setting [2]. In addition, the T/C is, setting by setting: (dose: 400.0 mg/kg/injection, schedule: Q01DX005 (ip), vehicle: Klucel (hydroxypropylcellulose) (HPC)) 97 % of control; (dose: 400.0 mg/kg/injection, schedule: Q01DX009 (ip), vehicle: Klucel (hydroxypropylcellulose) (HPC)) 87 % of control; under setting [3], 107 % of control.
Take `Cc1ccc(N=NN(C)C)cc1`: the T/C runs as follows: (dose: 12.5 mg/kg/injection, schedule: Q01DX009 (ip), vehicle: saline with Tween-80) 97 % of control; under setting [4], 103 % of control; (dose: 25.0 mg/kg/injection, schedule: Q04DX003 (ip), vehicle: saline with Tween-80) 105 % of control; (dose: 26.6 mg/kg/injection, schedule: Q01DX Z (ip), vehicle: methylcellulose (MC)) 104 % of control; (dose: 31.25 mg/kg/injection, schedule: Q01DX001 (ip), vehicle: saline with Tween-80) 108 % of control; (dose: 40.0 mg/kg/injection, schedule: Q01DX Z (ip), vehicle: methylcellulose (MC)) 118 % of control. The T/C by setting is: under setting [5], 103 % of control; (dose: 50.0 mg/kg/injection, schedule: Q04DX003 (ip), vehicle: saline with Tween-80) 103 % of control; (dose: 62.5 mg/kg/injection, schedule: Q01DX001 (ip), vehicle: saline with Tween-80) 110 % of control; (dose: 90.0 mg/kg/injection, schedule: Q01DX Z (ip), vehicle: methylcellulose (MC)) 165 % of control; under setting [6], 104 % of control; under setting [7], 110 % of control. The T/C reads like this: (dose: 180.0 mg/kg/injection, schedule: Q01DX Z (ip), vehicle: carboxymethylcellulose (CMC)) 102 % of control; under setting [8], 109 % of control.
Consider `CCOC(=O)C(NC(C)=O)(C(=O)OCC)C(=O)c1ccc(Cl)cc1`, for which the T/C (dose: 100.0 mg/kg/injection, schedule: Q01DX001 (ip), vehicle: carboxymethylcellulose (CMC)) is 89 % of control and the T/C (dose: 200.0 mg/kg/injection, schedule: Q01DX001 (ip), vehicle: carboxymethylcellulose (CMC)) is 94 % of control.
Take `COc1cc2ccc3cc[n+](C)cc3c2cc1OC`: the T/C was 104 % of control (dose: 50.0 mg/kg/injection, schedule: Q04DX003 (ip), vehicle: saline); 121 % of control (dose: 66.0 mg/kg/injection, schedule: Q01DX009 (ip), vehicle: saline); 110 % of control under setting [9]; 98 % of control and 104 % of control under setting [10]; 96 % of control (dose: 150.0 mg/kg/injection, schedule: Q01DX009 (ip), vehicle: saline); 110 % of control under setting [11]. The T/C under setting [12] is 102 % of control.
In the case of `O=[N+]([O-])c1cccc([N+](=O)[O-])c1/C=N/Nc1nnc(N/N=C/c2c([N+](=O)[O-])cccc2[N+](=O)[O-])c2ccccc12`, the T/C was 100 % of control (dose: 50.0 mg/kg/injection, schedule: Q01DX001 (ip), vehicle: saline); 103 % of control under setting [13]; 100 % of control under setting [14]; 100 % of control under setting [15].
Take `O=C(Cn1cc[n+](CC(=O)c2ccccc2)c1)c1ccccc1`: the T/C under setting [4] is 98 % of control, the T/C under setting [5] was 90 % of control and the T/C under setting [6] was 102 % of control.
On to `COC(=O)c1ccccc1NCCCC(=O)O`, for which the T/C is, setting by setting: under setting [6], 97 % of control; under setting [7], 103 % of control; under setting [16], 97 % of control; under setting [8], 97 % of control; under setting [17], 102 % of control; (dose: 400.0 mg/kg/injection, schedule: Q04DX003 (ip), vehicle: saline with Tween-80) 98 % of control.
In the case of `COC(O)C(Cl)(Cl)Cl` (stereo unspecified), the T/C runs as follows: under setting [13], 101 % of control; under setting [9], 97 % of control; under setting [10], 96 % of control; under setting [14], 97 % of control; under setting [18], 103 % of control; under setting [11], 100 % of control. Besides, the T/C reads like this: under setting [15], 109 % of control; under setting [19], 103 % of control; under setting [12], 104 % of control.
On to `OCC1OC(n2cncn2)C(O)C1O` (stereo unspecified), for which, where the note is “dose: 100.0 mg/kg/injection, schedule: Q01DX005 (ip), vehicle: saline”, the T/C is 102 % of control and 111 % of control.
Consider `Nc1nc(N)c2nc(CNc3ccc(Cl)cc3)cnc2n1`, for which the T/C reads like this: (dose: 20.0 mg/kg/injection, schedule: Q01DX009 (ip), vehicle: Klucel (hydroxypropylcellulose) (HPC)) 96 % of control; (dose: 40.0 mg/kg/injection, schedule: Q01DX009 (ip), vehicle: Klucel (hydroxypropylcellulose) (HPC)) 96 % of control; (dose: 80.0 mg/kg/injection, schedule: Q01DX009 (ip), vehicle: Klucel (hydroxypropylcellulose) (HPC)) 104 % of control.
For `ClC(CCC(Cl)c1ccccc1)c1ccccc1` (stereo unspecified), the T/C by setting is: under setting [1], 101 % of control; under setting [2], 104 % of control; under setting [3], 101 % of control.
Consider `[N-]=[N+]=NC1=CC(=O)C(c2ccccc2)=CC1=O`, for which the T/C is 102 % of control (dose: 100.0 mg/kg/injection, schedule: Q04DX002 (ip), vehicle: saline with Tween-80) and 97 % of control (dose: 200.0 mg/kg/injection, schedule: Q04DX002 (ip), vehicle: saline with Tween-80).
Take `C=C[CH2][Sn]([Br])([Br])[CH2]C=C`: the T/C under setting [6] is 106 % of control, the T/C under setting [16] is 95 % of control and the T/C under setting [17] was 95 % of control.
For `CCCCN(CCCC)CC(O)c1cc2ccc(Cl)cc2nc1-c1ccc(Cl)cc1` (stereo unspecified), the T/C reads like this: (dose: 100.0 mg/kg/injection, schedule: Q04DX003 (ip), vehicle: Klucel (hydroxypropylcellulose) (HPC)) 100 % of control; (dose: 200.0 mg/kg/injection, schedule: Q04DX003 (ip), vehicle: Klucel (hydroxypropylcellulose) (HPC)) 96 % of control; (dose: 400.0 mg/kg/injection, schedule: Q04DX003 (ip), vehicle: Klucel (hydroxypropylcellulose) (HPC)) 102 % of control.
In the case of `CC12CCCCC1C=CC(=O)C2` (stereo unspecified), the T/C was 89 % of control (dose: 75.0 mg/kg/injection, schedule: Q01DX001 (ip), vehicle: other) and 94 % of control (dose: 150.0 mg/kg/injection, schedule: Q01DX001 (ip), vehicle: other).
Take `Brc1ccc(Br)c(-c2nnc(-c3cccc4ccccc34)o2)c1`: under setting [13], the T/C is 86 % of control.
For the compound `C1CN(CC2CO2)CCO1` (stereo unspecified), the T/C is 105 % of control under setting [9], 117 % of control under setting [18] and 105 % of control under setting [19].
Regarding `CCCCn1c(C)cc2c(c1=O)COC(=O)C2CC` (stereo unspecified), the T/C is 100 % of control (dose: 2.5 mg/kg/injection, schedule: Q04DX003 (ip), vehicle: saline); 100 % of control (dose: 5.0 mg/kg/injection, schedule: Q04DX003 (ip), vehicle: saline); 95 % of control (dose: 10.0 mg/kg/injection, schedule: Q04DX003 (ip), vehicle: saline); 97 % of control (dose: 20.0 mg/kg/injection, schedule: Q04DX003 (ip), vehicle: saline); 94 % of control (dose: 40.0 mg/kg/injection, schedule: Q04DX003 (ip), vehicle: saline); 95 % of control (dose: 80.0 mg/kg/injection, schedule: Q04DX003 (ip), vehicle: saline).
